Experimental data reported in US20220089598A1, “INHIBITORS OF HUMAN IMMUNODEFICIENCY VIRUS REPLICATION” (VIIV HEALTHCARE UK (No. 5) LIMITED, priority 2018, published 2022).
Read-outs that look alike come from different tables or passages of the source.

How the values were obtained:
Type in all cases: cell-based
[1] = system: uninfected MT2 cells; assay: Compound cytotoxicity, XTT-based colorimetric assay; settings: day 4, XTT assay
How it was run: (§1)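 Run under the antiviral-assay protocol but without virus. Viability was read on day 4 and CC50 values were derived from the readout.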

[2] = system: recombinant NL4-3 virus (Renilla luciferase) in MT-2 cells; assay: HIV cell culture assay (antiviral activity, luciferase readout)
How it was run: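 Nef-deleted NL4-3 carrying Renilla luciferase, made by transfecting 293T cells, infects MT-2 cells for 4-5 days with serial compound dilutions present. Luciferase is read with a live-cell substrate. EC50 comes from the exponential median-effect equation Fa=1/[1+(ED50/drug conc.)m].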

[3] = Compound cytotoxicity, XTT-based colorimetric assay; settings: human; uninfected MT2 cells, day 4, XTT assay
How it was run: as §1

Structure (SMILES) | CC50 [1] [nM] | EC50 ([2]; MT-2 cells infected for 4-5 days with recombinant NL4-3 virus, luciferase activity, read-out: EC50) [nM] | CC50 at 4 day [3] [nM] | EC50 ([2]; Renilla, NL43) [nM]
CS(=O)(=O)Nc1nn(CC(F)F)c2c(-n3c(C(Cc4cc(F)cc(F)c4)NC(=O)Cn4nc(C(F)(F)F)c5c4C(F)(F)C4CC54)nc4nc(-c5ccccc5F)ccc4c3=O)ccc(Cl)c12 [Example 32, N—((S)-1-((3P)-3-(4-chloro-1-(2,2-difluoroethyl)-3-(methylsulfonamido)-1H-indazol-7-yl)-7-(2-fluorophenyl)-4-oxo-3,4-dihydropyrido[2,3-d]pyrimidin-2-yl)-2-(3,5-difluorophenyl)ethyl)-2-((3bS,4aR)-5,5-difluoro-3-(trifluoromethyl)-3b,4,4a,5-tetrahydro-1H-cyclopropa[3,4]cyclopenta[1,2-c]pyrazol-1-yl)acetamide] | > 500 | 0.077 |  | 
CS(=O)(=O)Nc1nn(CC(F)(F)F)c2c(-n3c([C@H](Cc4cc(F)cc(F)c4)NC(=O)Cn4nc(C(F)F)c5c4C(F)(F)[C@@H]4C[C@H]54)nc4nc(-c5ccccc5F)ccc4c3=O)ccc(Cl)c12 (atropisomer, axis not shown; (P)) [Example 27, N—((S)-1-((3P)-3-(4-chloro-3-(methylsulfonamido)-1-(2,2,2-trifluoroethyl)-1H-indazol-7-yl)-7-(2-fluorophenyl)-4-oxo-3,4-dihydropyrido[2,3-d]pyrimidin-2-yl)-2-(3,5-difluorophenyl)ethyl)-2-((3bS,4aR)-3-(difluoromethyl)-5,5-difluoro-3b,4,4a,5-tetrahydro-1H-cyclopropa[3,4]cyclopenta[1,2-c]pyrazol-1-yl)acetamide] |  |  | > 500 | 0.088
Cn1nc(NS(C)(=O)=O)c2c(Cl)ccc(-n3c([C@H](Cc4cc(F)cc(F)c4)NC(=O)Cn4nc(C(F)F)c5c4C(F)(F)[C@@H]4C[C@H]54)nc4nc(-c5cccc(F)c5F)ccc4c3=O)c21 (atropisomer, axis not shown; (P)) [Example 4, N—((S)-1-((3P)-3-(4-chloro-1-methyl-3-(methylsulfonamido)-1H-indazol-7-yl)-7-(2,3-difluorophenyl)-4-oxo-3,4-dihydropyrido[2,3-d]pyrimidin-2-yl)-2-(3,5-difluorophenyl)ethyl)-2-((3bS,4aR)-3-(difluoromethyl)-5,5-difluoro-3b,4,4a,5-tetrahydro-1H-cyclopropa[3,4]cyclopenta[1,2-c]pyrazol-1-yl)acetamide] |  |  | > 100 | 0.092
Cn1nc(NS(C)(=O)=O)c2c(Cl)ccc(-n3c([C@H](Cc4cc(F)cc(F)c4)NC(=O)Cn4nc(C(F)F)c5c4C(F)(F)[C@@H]4C[C@H]54)nc4nc(-c5cc(F)cc(F)c5)ccc4c3=O)c21 (atropisomer, axis not shown; (P)) [Example 21, N—((S)-1-((3P)-3-(4-chloro-1-methyl-3-(methylsulfonamido)-1H-indazol-7-yl)-7-(3,5-difluorophenyl)-4-oxo-3,4-dihydropyrido[2,3-d]pyrimidin-2-yl)-2-(3,5-difluorophenyl)ethyl)-2-((3bS,4aR)-3-(difluoromethyl)-5,5-difluoro-3b,4,4a,5-tetrahydro-1H-cyclopropa[3,4]cyclopenta[1,2-c]pyrazol-1-yl)acetamide] |  |  | > 100 | 0.08
CS(=O)(=O)Nc1nn(CC(F)F)c2c(-n3c([C@H](Cc4cc(F)cc(F)c4)NC(=O)Cn4ccc(C5CC5)n4)nc4nc(-c5ccccc5F)ccc4c3=O)ccc(Cl)c12 (atropisomer, axis not shown; (P)) [Example 33, (S)—N-(1-((3P)-3-(4-chloro-1-(2,2-difluoroethyl)-3-(methylsulfonamido)-1H-indazol-7-yl)-7-(2-fluorophenyl)-4-oxo-3,4-dihydropyrido[2,3-d]pyrimidin-2-yl)-2-(3,5-difluorophenyl)ethyl)-2-(3-cyclopropyl-1H-pyrazol-1-yl)acetamide] |  |  | > 500 | 0.15
Cn1nc(NS(C)(=O)=O)c2c(Cl)ccc(-n3c([C@H](Cc4cc(F)cc(F)c4)NC(=O)Cn4nc(C(F)F)c5c4C(F)(F)[C@@H]4C[C@H]54)nc4cc(-c5ccc(F)cc5F)cnc4c3=O)c21 (atropisomer, axis not shown; (P)) [Example 37, N—((S)-1-((3P)-3-(4-chloro-1-methyl-3-(methylsulfonamido)-1H-indazol-7-yl)-7-(2,4-difluorophenyl)-4-oxo-3,4-dihydropyrido[3,2-d]pyrimidin-2-yl)-2-(3,5-difluorophenyl)ethyl)-2-((3bS,4aR)-3-(difluoromethyl)-5,5-difluoro-3b,4,4a,5-tetrahydro-1H-cyclopropa[3,4]cyclopenta[1,2-c]pyrazol-1-yl)acetamide] |  |  | > 500 | 2
